According to PMC8705362, “Cytochrome P450 and P-gp Mediated Herb-Drug Interactions and Molecular Docking Studies of Garcinol” (Membranes, 2021):
Where two headings read alike, the source gives them in different places.

How the values were obtained:
CYP3A4 [1] = assay: in vivo; details: Sprague-Dawley, rat, plasma, po, 10 mg/kg
CYP2C8 = CYP2C8 inhibition, probe substrate cocktail in rat liver microsomes (paclitaxel 6α-hydroxylation); format: in vitro ADME; details: for Inhibition of CYP2C8 (in words): rat liver microsomes, garcinol up to 30 µM
Procedure: (§1) Tacrine was used as CYP1A2 probe substrate instead of Phenacetin to avoid the possible interactions of Phenacetin with CYP2E1 probe substrate Chlorzoxazone. […] The above incubation mixture was pre-incubated for 5 min at 37 °C and the reaction was started by adding NADPH and terminated by the addition of 200 µL of ice-cold acetonitrile containing internal standard (IS). Then the mixture was vortex mixed and centrifuged at 4000 rpm for 10 min at 4 °C and supernatant was separated and analysed using LC-MS/MS.
(§2) IC50 values were determined by comparing each CYP isozyme activity in the presence of different concentrations of inhibitor (Garcinol) with the control incubations containing no inhibitor (Negative control). […]
(§3) The entire procedure is same as mentioned in section 2.3 except for various concentrations of the formulations
(§4) and extracts (0.41-100 µg/mL) and garcinol (0.11-30 µM) were used in the study.

CYP2D6 = CYP2D6 inhibition, probe substrate cocktail in rat liver microsomes (dextromethorphan O-demethylation); format: in vitro ADME; details: pH 7.4, probe dextromethorphan (O-demethylation), rat liver microsomes 0.5 mg/mL, garcinol 0.11-30 µM
Procedure: as §1, §2, §3, §4

CYP1A2 = target: T1, CYP1A2 (Rattus norvegicus, UniProt P04799); assay: CYP1A2 inhibition, probe substrate cocktail in rat liver microsomes (tacrine 1-hydroxylation)
T1 sequence (P04799 1-513): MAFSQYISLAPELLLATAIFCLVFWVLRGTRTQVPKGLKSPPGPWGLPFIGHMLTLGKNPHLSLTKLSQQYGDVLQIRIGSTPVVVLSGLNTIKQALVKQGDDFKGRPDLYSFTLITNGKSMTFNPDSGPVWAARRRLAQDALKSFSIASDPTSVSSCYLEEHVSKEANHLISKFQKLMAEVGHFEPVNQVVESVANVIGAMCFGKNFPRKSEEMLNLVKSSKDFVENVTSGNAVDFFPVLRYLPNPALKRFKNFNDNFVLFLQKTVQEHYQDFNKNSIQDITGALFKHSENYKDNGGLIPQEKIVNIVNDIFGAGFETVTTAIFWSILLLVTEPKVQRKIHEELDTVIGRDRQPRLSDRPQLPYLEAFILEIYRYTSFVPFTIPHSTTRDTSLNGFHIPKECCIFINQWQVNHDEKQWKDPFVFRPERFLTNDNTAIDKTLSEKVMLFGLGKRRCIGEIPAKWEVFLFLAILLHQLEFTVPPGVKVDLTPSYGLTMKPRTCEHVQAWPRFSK
Procedure: as §1, §2, §3, §4

CYP3A4 [2] = assay: CYP3A4 inhibition, probe substrate cocktail in rat liver microsomes (midazolam 1-hydroxylation); format: in vitro ADME; details: pH 7.4, probe midazolam (1-hydroxylation), rat liver microsomes 0.5 mg/mL, garcinol 0.11-30 µM
Procedure: as §1, §2, §3, §4

CYP2C19 = CYP2C19 inhibition, probe substrate cocktail in rat liver microsomes (S-mephenytoin 4-hydroxylation); format: in vitro ADME; details: pH 7.4, probe S-mephenytoin (4-hydroxylation), rat liver microsomes 0.5 mg/mL, garcinol 0.11-30 µM
Procedure: as §1, §2, §3, §4

P-gp [3] = assay: In-vivo P-gp pharmacokinetic study with digoxin; set-up: species or system SD rats; details: for Cl / Cmax / AUC(0-inf) / AUC(0-t) / half-life: SD rats, plasma; for Cmax / AUC(0-inf) / AUC(0-t) / half-life: rat, po; for Cmax: 0.5 mg/kg
Procedure: Effect of single dose garcinol on the P-gp was evaluated in-vivo, 18 rats were divided into three groups (Group I- Group III). Group I (Control group): rats were administered intragastrically with a single dose of vehicle (0.5% CMC-Na), and after 2 h of vehicle administration, digoxin (0.5 mg/kg) was given to the rats by intragastric administration. Group II: Rats received a single dose of garcinol (25 mg/kg) and digoxin (0.5 mg/kg) after 2 h. Group III: Verapamil (potent P-gp inhibitor) was administered to these rats followed by the administration of digoxin (results not shown). 0.2 mL of blood was collected at 0, 0.25, 0.5, 1, 2, 4, 6, 8, 24, and 48 h, plasma was separated immediately by centrifuging blood samples at 5000 rpm for 5 min and stored at −80 °C until analysis.
50 µL of plasma samples was crashed with ice-cold ACN containing internal standard (75 ng/mL) and vortexed gently and centrifuged at 10,000 rpm for 5 min. Supernatant was collected and submitted for LC-MS/MS analysis. LC-MS analysis was performed on LC-QTOF/MS (Agilent, 6540) and chromatographic separation was achieved on Waters X-Bridge C18 column (3.5 µm, 50 mm × 1.76 mm I.D) at 30 °C. Digoxin was analysed by a mobile phase consisting of solvent A (0.1% Formic acid in water) and solvent B (100% ACN) flow at a rate of 0.4 mL/min with a gradient program of 5 min. The program consisted of initial10 %B from 0.01 to 3.00 min, followed by 90% B from 3.01 to 4.00 min and again to 10% B from 4.01 to 5.00 min. [M+H]+ ions were identified and quantified for Digoxin and IS as 781.4369 and 515.2442, respectively. Optimized MS operating parameters were as follows: drying gas 10 L/min, gas temperature 325 °C, nebulizer at 40 psig, fragmentor voltage of 140 V and skimmer at 65 V.

CYP isoforms = assay: Time-dependent inhibition, IC50 shift assay in rat liver microsomes; format: in vitro ADME; details: 30 min pre-incubation with and without NADPH, all tested CYP isoforms
Procedure: Garcinol was pre-incubated with rat liver microsomes to determine the time-dependent inhibition potential of garcinol on various CYP isoforms individually. After 30 min of incubation with and without NADPH separately, metabolites of each CYP probe substrates were quantified using LC-MS/MS. IC50 values with and without NADPH pre-incubation were calculated using graph-pad prism and change in IC50 fold was calculated to evaluate the potential of garcinol to inhibit the CYP enzymes irreversibly. If the curve shifts to lower IC50 value after the pre- incubation in presence of NADPH, it is said to be a time-dependent inhibition. Concentrations of the test compound and other procedure were same as reversible inhibition study mentioned under Section 2.3.

CYP2C9 = CYP2C9 inhibition, probe substrate cocktail in rat liver microsomes (diclofenac 4-hydroxylation); format: in vitro ADME; details: pH 7.4, probe diclofenac (4-hydroxylation), rat liver microsomes 0.5 mg/mL, garcinol 0.11-30 µM
Procedure: as §1, §2, §3, §4

CYP2E1 = CYP2E1 (Rattus norvegicus, UniProt P05182); assay: CYP2E1 inhibition, probe substrate cocktail in rat liver microsomes (chlorzoxazone 6-hydroxylation)
CYP2E1, sequence (P05182 whole entry): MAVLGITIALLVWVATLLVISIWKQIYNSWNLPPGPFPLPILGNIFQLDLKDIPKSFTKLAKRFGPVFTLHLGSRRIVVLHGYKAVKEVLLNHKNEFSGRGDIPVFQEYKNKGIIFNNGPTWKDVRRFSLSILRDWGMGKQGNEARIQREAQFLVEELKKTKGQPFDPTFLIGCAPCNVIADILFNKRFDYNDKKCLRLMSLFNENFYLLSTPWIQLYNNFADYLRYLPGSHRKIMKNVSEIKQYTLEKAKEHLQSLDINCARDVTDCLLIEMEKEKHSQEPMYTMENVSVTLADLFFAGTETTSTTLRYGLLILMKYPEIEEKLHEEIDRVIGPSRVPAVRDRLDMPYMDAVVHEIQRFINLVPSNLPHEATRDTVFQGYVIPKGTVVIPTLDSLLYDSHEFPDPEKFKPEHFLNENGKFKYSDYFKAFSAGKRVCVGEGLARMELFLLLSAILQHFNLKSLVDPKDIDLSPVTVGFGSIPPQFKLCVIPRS
Procedure: as §1, §2, §3, §4

P-gp [4] = assay: Western blotting of P-gp expression in rat brain and intestine; format: in vivo, rats; details: garcinol 25 mg/kg intragastric once a day for 10 days, normalized to β-actin, p < 0.05
Procedure: For Western blot analysis, twelve rats were divided into two groups. […] On the 10th day, all the rats were sacrificed under CO2 euthanasia. Brain and intestine were isolated immediately and stored at −80 °C until use. 10 mg of intestinal and brain samples were lysed using ice-cold radio immunoprecipitation assay lysis buffer containing 0.02 mM phenylmethane sulfonyl fluoride for 30 min and ultrasonicated for 60 s at 20-s intervals in an ice bath. These samples were transferred to centrifugation tubes and centrifuged for 10 min at 8000 g by maintaining temperature at 4 °C. Supernatants were estimated for protein concentration using BCA protein assay kit by following the manufacturer’s instructions. Protein denaturation was performed by reconstituting the supernatant in lammelle buffer and boiled for 5 mins at 97 °C. The denatured samples were later separated on 10% SDS-polyacrylamide gel electrophoresis and then transferred onto a nitrocellulose membrane. The membrane was then blocked with 3% bovine serum albumin in Tris-buffered saline-Tween 20 (TBS-T) for 1 hr at 37 °C. These immunoblots were probed with primary monoclonal antibody P-gp (1:1000) or β-actin (1:1000) overnight at 4 °C. […] The band intensity of P-gp protein was normalized to that of β-actin detected using Azure biosystems.

CYP2B6 [5] = assay: CYP2B6 inhibition, probe substrate cocktail in rat liver microsomes (bupropion hydroxylation); format: in vitro ADME; details: pH 7.4, probe bupropion (hydroxylation)
Procedure: as §1, §2, §3, §4

CYP3A4 [6] = details: rats, midazolam 10 mg/kg in probe mixture on day 8, with garcinol 25 mg/kg oral for 7 days, plasma; second block of Table 3
CYP2B6 [7] = assay: In-vivo CYP inhibition study, pharmacokinetics of probe bupropion and hydroxy bupropion; details: plasma
[8] = digoxin 0.5 mg/kg 2 h after single dose garcinol 25 mg/kg (group DGX + Garcinol)
[9] = Sprague-Dawley, digoxin 0.5 mg/kg intragastric 2 h after vehicle (group DGX)
[10] = Sprague-Dawley, rat, po, 10 mg/kg
[11] = rats, bupropion 10 mg/kg in probe mixture on day 8, with garcinol 25 mg/kg oral for 7 days

Cc1ncc2n1-c1ccc(Cl)cc1C(c1ccccc1F)=NC2 [midazolam]
AUC(0-inf) (CYP3A4 [1]): 1140 ± 77.4 ng·h/mL
AUC(0-t) (CYP3A4 [1]): 1240 ± 18.6 ng·h/mL
Cmax (CYP3A4 [1]): 829 ± 15.7 ng/mL
Tmax (CYP3A4 [1]): 0.5 ± 1.23 h
half-life (CYP3A4 [1]): 3.12 ± 0.88 h

C=C(C)[C@@H](CC=C(C)C)C[C@@]12C[C@@H](CC=C(C)C)C(C)(C)[C@@](CC=C(C)C)(C(=O)C(C(=O)c3ccc(O)c(O)c3)=C1O)C2=O [Garcinol]
IC50 (CYP2C8; pH 7.4, probe paclitaxel (6α-hydroxylation), rat liver microsomes 0.5 mg/mL, substrate paclitaxel, garcinol 0.11-30 µM): > 30 µM
Inhibition of CYP2C8 (in words) (CYP2C8): no apparent inhibition
Inhibition of CYP2C8 (in words) (CYP2C8; listed as garcinol): negligibly inhibited
IC50 (CYP2D6): 9.5 µM
IC50 (CYP1A2): 7.6 µM
IC50 (CYP3A4 [2]): 5.1 µM
IC50 (CYP2C19): 16.4 µM
Effect on P-gp function in vivo (in words) (P-gp [3]; rats, single dose garcinol 25 mg/kg, digoxin as P-gp substrate): not an inhibitor of P-gp
Shift in IC50 (time dependent inhibition) (CYP isoforms): no significant shift
Shift in IC50 (time dependent inhibition) (CYP isoforms; listed as garcinol): did not show shift
IC50 (CYP2C9): 8 µM
IC50 (CYP2E1): 19 µM
P-gp expression increase vs control group (P-gp [4]; rat brain tissue): 1.62 fold
P-gp expression increase vs control group (P-gp [4]; rat intestinal tissue): 1.07 fold
IC50 (CYP2B6 [5]): 2.1 µM

OCc1ncc2n1-c1ccc(Cl)cc1C(c1ccccc1F)=NC2 [hydroxy midazolam, 1-hydroxy midazolam]
AUClast (CYP3A4 [6]): 737.45 ± 66.95 ng·h/mL
Cmax (CYP3A4 [6]): 482.85 ± 14.34 ng/mL
Tmax (CYP3A4 [6]): 0.25 ± 1.92 h
t1/2 (CYP3A4 [6]): 2.15 ± 0.36 h

C[C@H]1O[C@@H](O[C@H]2[C@@H](O)C[C@H](O[C@H]3[C@@H](O)C[C@H](O[C@H]4CC[C@@]5(C)[C@H](CC[C@@H]6[C@@H]5C[C@@H](O)[C@]5(C)[C@@H](C7=CC(=O)OC7)CC[C@]65O)C4)O[C@@H]3C)O[C@@H]2C)C[C@H](O)[C@@H]1O [DGX, digoxin]
Cl (P-gp [3]; [8]): 24.5793 ± 1.422 mL/min/kg
Cl (P-gp [3]; digoxin 0.5 mg/kg intragastric 2 h after vehicle (group DGX)): 16.401 ± 0.9478 mL/min/kg
Cmax (P-gp [3]; Sprague-Dawley, digoxin 0.5 mg/kg 2 h after single dose garcinol 25 mg/kg (group DGX + Garcinol)): 16.8 ± 4.22 ng/mL
Cmax (P-gp [3]; [9]): 26.1 ± 5.23 ng/mL
AUC(0-inf) (P-gp [3]; [9]): 254 ± 19.2 ng·h/mL
AUC(0-t) (P-gp [3]; [9]): 172 ± 12.3 ng·h/mL
half-life (P-gp [3]; [9]): 15.1 ± 0.35 h
AUC(0-inf) (P-gp [3]; [8]): 172 ± 12.6 ng·h/mL
AUC(0-t) (P-gp [3]; [8]): 151.4 ± 0.58 ng·h/mL
half-life (P-gp [3]; [8]): 7.32 ± 1.75 h

CC(NC(C)(C)C)C(=O)c1cccc(Cl)c1 (stereo not shown) [Bupropion, bupropion]
AUC(0-inf) (CYP2B6 [7]; [10]): 48800 ng·h/mL
AUC(0-t) (CYP2B6 [7]; [10]): 48200 ng·h/mL
Cmax (CYP2B6 [7]; [10]): 8100 ± 121 ng/mL
Tmax (CYP2B6 [7]; [10]): 2.5 ± 3.52 h

C[C@H]1NC(C)(C)CO[C@]1(O)c1cccc(Cl)c1 [Hydroxy Bupropion, hydroxybupropion]
AUC0-∞ (CYP2B6 [7]; [11]): 6200.97 ± 106.97 ng·h/mL
AUClast (CYP2B6 [7]; [11]): 6057.86 ± 101.41 ng·h/mL
Cmax (CYP2B6 [7]; [11]): 632.02 ± 30.55 ng/mL
Tmax (CYP2B6 [7]; [11]): 1 ± 1.93 h
t1/2 (CYP2B6 [7]; [11]): 10.23 ± 0.04 h
